ChEMBL document CHEMBL1240479, “Exploring benzcyclo derivatives as potent aromatase inhibitors using ligand-based modeling studies” (Eur J Med Chem, 2010)

Target: T1, Aromatase (Homo sapiens, UniProt P11511)
T1 sequence (P11511 whole entry): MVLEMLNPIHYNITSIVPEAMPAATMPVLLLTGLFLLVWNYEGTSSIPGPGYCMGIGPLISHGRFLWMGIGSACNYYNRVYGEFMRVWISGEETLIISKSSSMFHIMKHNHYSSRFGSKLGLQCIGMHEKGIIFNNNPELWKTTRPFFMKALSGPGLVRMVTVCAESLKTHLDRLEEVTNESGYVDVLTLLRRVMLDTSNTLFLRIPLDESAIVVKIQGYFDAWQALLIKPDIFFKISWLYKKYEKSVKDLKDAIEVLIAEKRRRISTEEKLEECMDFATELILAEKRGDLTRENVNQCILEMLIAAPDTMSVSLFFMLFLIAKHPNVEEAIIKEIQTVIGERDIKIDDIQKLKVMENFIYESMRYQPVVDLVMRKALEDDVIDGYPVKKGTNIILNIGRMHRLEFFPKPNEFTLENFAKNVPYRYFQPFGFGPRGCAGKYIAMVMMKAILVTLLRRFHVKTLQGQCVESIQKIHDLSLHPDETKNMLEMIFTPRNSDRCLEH
Assay: Inhibition of aromatase

SMILES: Brc1ccc2c(c1)CCC2=Cc1ccncc1
- IC50: 3.4 µM

SMILES: Brc1ccc2c(c1)CC/C2=C/c1ccncc1
- IC50: 3.96 µM

SMILES: C(=C(c1ccccc1)c1ccccc1)c1cccnc1
- IC50: 3.68 µM
